Entries after “also recorded” stand apart in the source; their conditions may differ. Like-named read-outs stand apart in the source and are kept apart here.
What was measured:
[1] = test system: Fusarium graminearum; assay type: cell-based; design: key: +++: high sensitivity, no hyphal growth; ++: medium sensitivity; +: low sensitivity; −: no effect; details: 24 h
[2] = test system: Candida parapsilosis; assay: Antifungal activity in 96-well microtiter plates; assay type: cell-based; design: key: +++: high sensitivity, no hyphal growth; ++: medium sensitivity; +: low sensitivity; −: no effect; details: 24 h
[3] = test system: Candida crusei; assay: Antifungal activity in 96-well microtiter plates; assay type: cell-based; design: key: +++: high sensitivity, no hyphal growth; ++: medium sensitivity; +: low sensitivity; −: no effect; details: 24 h
[4] = test system: Rhizopus stolonifer var. stolonifer; assay: Antifungal activity in 96-well microtiter plates; assay type: cell-based; design: key: +++: high sensitivity, no hyphal growth; ++: medium sensitivity; +: low sensitivity; −: no effect; details: 24 h
[5] = test system: Aspergillus flavus; assay: Antifungal activity in 96-well microtiter plates; assay type: cell-based; design: key: +++: high sensitivity, no hyphal growth; ++: medium sensitivity; +: low sensitivity; −: no effect; details: 24 h
[6] = test system: Candida albicans; assay: Antifungal activity in 96-well microtiter plates; assay type: cell-based; design: key: +++: high sensitivity, no hyphal growth; ++: medium sensitivity; +: low sensitivity; −: no effect; details: 24 h
[7] = test system: Aspergillus niger; assay: Antifungal activity in 96-well microtiter plates; assay type: cell-based; design: key: +++: high sensitivity, no hyphal growth; ++: medium sensitivity; +: low sensitivity; −: no effect; details: 24 h
[8] = test system: Pseudomonas syringae pv tomato DC3000; assay: PI staining, broad spectrum activity; assay type: cell-based; details: 50 μg/ml
[9] = test system: Curtobacterium, flaccumfaciens; assay: PI staining, broad spectrum activity; assay type: cell-based; details: 50 μg/ml
[10] = test system: Bacillus subtilis; assay: CFU determination, broad spectrum activity; assay type: cell-based; details: 50 μg/ml, untreated 10^6
[11] = test system: Xanthomonas 2880; assay: PI staining, broad spectrum activity; assay type: cell-based; details: 50 μg/ml
[12] = test system: Staphylococcus aureus; assay: CFU determination, broad spectrum activity; assay type: cell-based; details: 50 μg/ml, untreated 10^6
[13] = test system: Xanthomonas 2880; assay: CFU determination, broad spectrum activity; assay type: cell-based; details: 50 μg/ml, Xanthomonas 2880, untreated 10^7
[14] = test system: Clavibacter michigense; assay: CFU determination, broad spectrum activity; assay type: cell-based; details: 50 μg/ml, untreated 10^9
[15] = test system: Staphylococcus aureus; assay: PI staining, broad spectrum activity; assay type: cell-based; details: 50 μg/ml
[16] = test system: Curtobacterium, flaccumfaciens; assay: CFU determination, broad spectrum activity; assay type: cell-based; details: 50 μg/ml, untreated 10^9
[17] = test system: Pseudomonas syringae pv tomato DC3000; assay: CFU determination, broad spectrum activity; assay type: cell-based; details: 50 μg/ml, Pseudomonas syringae pv tomato DC3000, untreated 10^7
[18] = test system: Sinorhizobium meliloti AK631; assay: CFU determination of Sinorhizobium meliloti; details: for CFU % / CFU (colony/ml): 1 hr; for CFU determination (colony formation): 3 hours, 2-3×10^6 bacteria, FIG. 2B; for CFU: Sinorhizobium meliloti (AK631), untreated 10^7; for eradication of the bacteria: from the low dose of 20 μg/ml
[19] = test system: Clavibacter michigense; assay: PI staining, broad spectrum activity; assay type: cell-based; details: 50 μg/ml
[20] = test system: Sinorhizobium meliloti AK631; assay: PI staining of Sinorhizobium meliloti; details: 50 μg/ml; for PI: Sinorhizobium meliloti (AK631)
[21] = test system: Bacillus subtilis; assay: PI staining, broad spectrum activity; assay type: cell-based; details: 50 μg/ml

Q: For C[C@@H]1[C@H](O)[C@@H](C)/C=C/C=C/C=C/C=C/C=C/C=C/C=C/[C@H](O[C@@H]2O[C@H](C)[C@@H](O)[C@H](N)[C@@H]2O)C[C@@H]2O[C@](O)(C[C@@H](O)C[C@@H](O)[C@H](O)CC[C@@H](O)C[C@@H](O)CC(=O)O[C@H]1C)C[C@H](O)[C@H]2C(=O)O [AMB, Amfotericin B, reference compound], which “Fungal (hyphal) growth, sensitivity” value ([1]; 125 μg/ml) is on record?
A: The value was “++”.

Q: What about the “Fungal (hyphal) growth, sensitivity” value ([2]; 125 μg/ml) of the same compound?
A: Its value is “+++”.

Q: What about the “Fungal (hyphal) growth, sensitivity” value ([3]; 125 μg/ml) of the same compound?
A: Its value is “+++”.

Q: What about the “Fungal (hyphal) growth, sensitivity” value ([4]; 125 μg/ml) of the same compound?
A: The value was “+++”.

Q: What about the “Fungal (hyphal) growth, sensitivity” value ([5]; 125 μg/ml) of the same compound?
A: Its value is “+++”.

Q: What about the “Fungal (hyphal) growth, sensitivity” value ([6]; 125 μg/ml) of the same compound?
A: The value was “+++”.

Q: And the “Fungal (hyphal) growth, sensitivity” value ([7]; 125 μg/ml)?
A: Its value is “+++”.

Q: How did the PI [8] turn out when “NCR035: cationic NCR peptide (SFLGTFISSCKRDKDCPKLYGANFRCRKGTCVPPI; Peptide derived from Medicago truncatula)” was run?
A: The PI was “PI: 100%”.

Q: And the PI [9]?
A: The PI was “PI: 78%”.

Q: What about the CFU [10] of the same compound?
A: Its CFU is “CFU: 10^3”.

Q: What about the PI [11] of the same compound?
A: The PI was “PI: 100%”.

Q: What about the “Fungal (hyphal) growth, sensitivity” value ([1]; 25 μg/ml) of the same compound?
A: Its value is “−”.

Q: What about the “Fungal (hyphal) growth, sensitivity” value ([1]; 50 μg/ml) of the same compound?
A: Its value is “+”.

Q: And the “Fungal (hyphal) growth, sensitivity” value ([1]; 100 μg/ml)?
A: Its value is “++”.

Q: And the “Fungal (hyphal) growth, sensitivity” value ([2]; 25 μg/ml)?
A: Its value is “+”.

Q: What about the “Fungal (hyphal) growth, sensitivity” value ([2]; 50 μg/ml) of the same compound?
A: Its value is “++”.

Q: What about the “Fungal (hyphal) growth, sensitivity” value ([2]; 100 μg/ml) of the same compound?
A: The value was “++”.

Q: And the “Fungal (hyphal) growth, sensitivity” value ([3]; 25 μg/ml)?
A: The value was “+”.

Q: What about the “Fungal (hyphal) growth, sensitivity” value ([3]; 50 μg/ml) of the same compound?
A: The value was “++”.

Q: And the “Fungal (hyphal) growth, sensitivity” value ([3]; 100 μg/ml)?
A: Its value is “++”.

Q: And the CFU [12]?
A: Its CFU is “CFU: 10^6”.

Q: And the “Fungal (hyphal) growth, sensitivity” value ([4]; 25 μg/ml)?
A: The value was “−”.

Q: And the “Fungal (hyphal) growth, sensitivity” value ([4]; 50 μg/ml)?
A: Its value is “+”.

Q: And the “Fungal (hyphal) growth, sensitivity” value ([4]; 100 μg/ml)?
A: The value was “++”.

Q: What about the CFU [13] of the same compound?
A: Its CFU is “CFU: 10^2”.

Q: And the CFU [14]?
A: Its CFU is “CFU: 10^4”.

Q: And the PI [15]?
A: The PI was “PI: 100%”.

Q: And the CFU [16]?
A: Its CFU is “CFU: 10^5”.

Q: What about the “Fungal (hyphal) growth, sensitivity” value ([5]; 25 μg/ml) of the same compound?
A: Its value is “−”.

Q: What about the “Fungal (hyphal) growth, sensitivity” value ([5]; 50 μg/ml) of the same compound?
A: The value was “+”.

Q: And the “Fungal (hyphal) growth, sensitivity” value ([5]; 100 μg/ml)?
A: Its value is “++”.

Q: What about the CFU [17] of the same compound?
A: Its CFU is “CFU: 10^7”.

Q: And the CFU % ([18]; 20 μg/ml)?
A: Its CFU % is 0%.

Q: What about the “CFU (colony/ml)” value ([18]; 20 μg/ml) of the same compound?
A: The value was 21000 colony/ml.

Q: And the CFU % ([18]; 50 μg/ml)?
A: Its CFU % is 0%.

Q: What about the “CFU (colony/ml)” value ([18]; 50 μg/ml) of the same compound?
A: Its value is 0 colony/ml.

Q: And the “CFU determination (colony formation)” value ([18]; 50 μg/ml)?
A: Its value is “none formed colony”.

Q: And the CFU ([18]; 50 μg/ml)?
A: Its CFU is “CFU: 0”.

Q: And the “eradication of the bacteria” value [18]?
A: The value was “able to eradicate the bacteria in less than an hour”.

Q: And the PI [19]?
A: Its PI is “PI: 110%”.

Q: And the “Fungal (hyphal) growth, sensitivity” value ([6]; 25 μg/ml)?
A: Its value is “+”.

Q: And the “Fungal (hyphal) growth, sensitivity” value ([6]; 50 μg/ml)?
A: The value was “++”.

Q: What about the “Fungal (hyphal) growth, sensitivity” value ([6]; 100 μg/ml) of the same compound?
A: The value was “++”.

Q: What about the “PI staining (PI uptake)” value ([20]; FIG. 2A, listed as NCR35) of the same compound?
A: The value was “provoked PI uptake; also recorded: comparable to heat killed bacteria or bacteria treated with polymyxin B”.

Q: And the PI [20]?
A: Its PI is “PI: 90%”.

Q: What about the “Fungal (hyphal) growth, sensitivity” value ([7]; 25 μg/ml) of the same compound?
A: The value was “−”.

Q: What about the “Fungal (hyphal) growth, sensitivity” value ([7]; 50 μg/ml) of the same compound?
A: Its value is “−”.

Q: What about the “Fungal (hyphal) growth, sensitivity” value ([7]; 100 μg/ml) of the same compound?
A: Its value is “+”.

Q: What about the PI [21] of the same compound?
A: Its PI is “PI: 100%”.

Q: Which PI [8] does the source give for “NCR057: cationic NCR peptide (RPVSCKDHYDCRRKVKIVGCIFPQEKPMCINSMCTCIREIVP; Peptide derived from Medicago truncatula)” here?
A: The PI was “PI: 50%”.

Q: And the PI [9]?
A: Its PI is “PI: 60%”.

Q: What about the CFU [10] of the same compound?
A: Its CFU is “CFU: 10^6”.

Q: What about the PI [11] of the same compound?
A: The PI was “PI: 65%”.

Q: And the CFU [12]?
A: The CFU was “CFU: 10^6”.

Q: What about the PI [15] of the same compound?
A: The PI was “PI: 47%”.

Q: And the CFU [16]?
A: Its CFU is “CFU: 0”.

Q: What about the CFU [17] of the same compound?
A: Its CFU is “CFU: 10^6”.

Q: What about the CFU % ([18]; 20 μg/ml) of the same compound?
A: The CFU % was 148%.

Q: And the “CFU (colony/ml)” value ([18]; 20 μg/ml)?
A: The value was 9800000 colony/ml.

Q: What about the CFU % ([18]; 50 μg/ml) of the same compound?
A: The CFU % was 68%.

Q: And the “CFU (colony/ml)” value ([18]; 50 μg/ml)?
A: Its value is 4500000 colony/ml.

Q: And the “CFU determination (colony formation)” value ([18]; 50 μg/ml)?
A: The value was “reduced growth capacity”.

Q: And the CFU ([18]; 50 μg/ml)?
A: The CFU was “CFU: 10^6”.

Q: What about the “eradication of the bacteria” value [18] of the same compound?
A: Its value is “able to eradicate the bacteria in less than an hour”.

Q: And the PI [19]?
A: The PI was “PI: 70%”.

Q: What about the PI [20] of the same compound?
A: Its PI is “PI: 35%”.

Q: What does the source list for “NCR224: anionic NCR peptide (KDLPFNICEKDEDCLEFCAHDKVAKCMLNICFCF; Peptide derived from Medicago truncatula)”?
A: CFU % ([18]; 20 μg/ml): 130%; CFU (colony/ml) ([18]; 20 μg/ml): 52900000 colony/ml; CFU % ([18]; 50 μg/ml): 48%; CFU (colony/ml) ([18]; 50 μg/ml): 19600000 colony/ml; CFU determination (colony formation) ([18]; 50 μg/ml): reduced growth capacity
